Tests used:
[1] = target: T1, human recombinant CHRM3 receptor (Homo sapiens, UniProt P20309); experiment: Radioligand binding assay, CHRM3; settings: [3H]4-DAMP (0.2 nM), CHO cell membranes, 60 minutes at room temperature; read-out: Ki M3
T1 construct: expressed in transfected cells; host or cells: CHO cells (membranes)
Procedure: PD102807 and Compounds A-K at concentrations of 1×10^−9 M, 1×10^−8 M, 1×10^−7 M, 1×10^−6 M, and 1×10^−5 M were tested in standard binding assays with radioligands and cell membranes with receptors. Compound binding was calculated as a percent inhibition of the binding of a radioactively labeled ligand specific for each target, and the Ki values were determined. For CHRM1, the binding assay was performed using [^3H]pirenzepine (2 nM) as a radioligand and membranes of CHO cells with human recombinant CHRM1 receptor. The incubation time was 60 minutes at room temperature. For CHRM2, the binding assay was performed using [^3H]AF-DX 384 (2 nM) as a radioligand and membranes of CHO cells with human recombinant CHRM2 receptor. The incubation time was also 60 minutes at room temperature. For CHRM3, the binding assay was performed using [^3H]4-DAMP (0.2 nM) as a radioligand and membranes of CHO cells with human recombinant CHRM3 receptor. The incubation time was also 60 minutes at room temperature. For CHRM4, the binding assay was performed using [^3H]4-DAMP (0.2 nM) as a radioligand and membranes of CHO cells with human recombinant CHRM4 receptor. The incubation time was also 60 minutes at room temperature. For CHRM5, the binding assay was performed using [^3H]4-DAMP (0.3 nM) as a radioligand and membranes of CHO cells with human recombinant CHRM5 receptor. The incubation time was also 60 minutes at room temperature.

CHRM4 [2] = target: T2, CHRM4 (Homo sapiens, UniProt P08173); experiment: Radioligand binding assay, CHRM4; set-up: expressed in transfected cells; host or cells: CHO cells (membranes); settings: [3H]4-DAMP (0.2 nM), CHO cell membranes, 60 minutes at room temperature; read-out: Ki M4
T2 sequence (P08173 1-479): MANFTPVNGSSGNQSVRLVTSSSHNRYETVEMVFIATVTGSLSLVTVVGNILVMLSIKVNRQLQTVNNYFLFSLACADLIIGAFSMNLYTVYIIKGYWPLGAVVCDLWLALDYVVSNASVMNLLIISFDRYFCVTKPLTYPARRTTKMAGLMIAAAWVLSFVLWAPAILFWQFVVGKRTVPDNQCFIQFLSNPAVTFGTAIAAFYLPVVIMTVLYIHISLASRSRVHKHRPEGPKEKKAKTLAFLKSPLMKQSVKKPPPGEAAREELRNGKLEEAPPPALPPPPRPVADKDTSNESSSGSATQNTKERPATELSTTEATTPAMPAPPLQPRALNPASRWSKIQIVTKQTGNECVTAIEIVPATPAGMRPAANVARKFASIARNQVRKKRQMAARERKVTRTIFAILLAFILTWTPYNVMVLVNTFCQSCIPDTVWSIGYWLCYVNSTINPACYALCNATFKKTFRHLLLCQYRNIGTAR

[3] = target: T3, human recombinant CHRM2 receptor (Homo sapiens, UniProt P08172); experiment: Radioligand binding assay, CHRM2; settings: [3H]AF-DX 384 (2 nM), CHO cell membranes, 60 minutes at room temperature; read-out: Ki M2
T3 construct: expressed in transfected cells; host or cells: CHO cells (membranes)
T3 sequence (P08172 1-466): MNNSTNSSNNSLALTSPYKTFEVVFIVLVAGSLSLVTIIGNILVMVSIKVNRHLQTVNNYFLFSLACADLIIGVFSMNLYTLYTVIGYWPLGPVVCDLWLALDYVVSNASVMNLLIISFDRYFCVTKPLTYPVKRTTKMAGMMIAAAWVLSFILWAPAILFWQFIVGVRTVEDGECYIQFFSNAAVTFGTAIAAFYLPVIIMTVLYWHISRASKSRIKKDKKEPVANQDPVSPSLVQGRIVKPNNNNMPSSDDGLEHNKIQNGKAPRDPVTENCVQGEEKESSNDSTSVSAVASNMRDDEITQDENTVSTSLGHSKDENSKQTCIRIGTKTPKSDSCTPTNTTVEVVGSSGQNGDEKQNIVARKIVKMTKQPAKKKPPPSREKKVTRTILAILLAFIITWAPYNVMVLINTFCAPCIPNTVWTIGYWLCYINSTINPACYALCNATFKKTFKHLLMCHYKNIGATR
In short: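 Membranes from CHO cells expressing each human recombinant receptor; radioligands [^3H]pirenzepine (2 nM) for CHRM1, [^3H]AF-DX 384 (2 nM) for CHRM2, [^3H]4-DAMP at 0.2 nM for CHRM3 and 0.3 nM for CHRM5. Compounds at 1×10^−9 to 1×10^−5 M; 60 min, room temperature. Percent inhibition of radioligand binding; Ki determined.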

CHRM4 [4] = target: T2, CHRM4; settings: previous reports (Croy 2016; Böhme 2002); cited from earlier work
[5] = test system: PHZ induced hemolytic anemia in C57bl/6 mice; experiment: PHZ induced hemolytic anemia mouse model, CBC; assay type: in vivo; settings: 100 mg/kg oral once per day, CBC on day 6, vs DMSO control
Procedure: Animal experiments were conducted in the Cold Spring Harbor Laboratory Animal Shared Resource in accordance with Institutional Animal Care and Use Committee-approved procedures. 4-6 weeks old C57bl/6 mice, purchased from Jackson Laboratory and randomly distributed into compound and control treatment groups, were given through oral delivery of PCS1055 (50 mg/kg or 100 mg/kg) twice per day or PD102807 (50 mg/kg or 100 mg/kg) once per day everyday for 3 days. On day 3, mice were intraperitoneally injected with 60 mg/kg PHZ. Mice were then given through oral delivery of PD102807 (50 mg/kg or 100 mg/kg) once per day every day for 2 days. Peripheral blood samples were collected retro-orbitally on day 6 using heparinized capillary tubes in blood collection tubes with K2-EDTA. CBC was performed using Hemavet 950. […] C57bl/6 mice were injected with 60 mg/kg phenylhydrazine to induce hemolysis. Mice were delivered with either vehicle control or Compound A or B (30 mg/kg or 100 mg/kg). Peripheral blood samples were collected retro-orbitally using heparinized capillary tubes into blood collection tubes with K2-EDTA. Complete blood counting was performed using Hemavet 950. Hematocrit (HCT), red blood cell (RBC) and hemoglobin (Hb) values are shown. […] C57bl/6 mice were injected with 60 mg/kg phenylhydrazine to induce hemolysis. Mice were delivered with subcutaneous injection with either vehicle control or Compound B (1.5 mg/kg, 3 mg/kg, or 5 mg/kg) or I (0.5 mg/kg, 0.7 mg/kg, or 1 mg/kg). Peripheral blood samples were collected retro-orbitally using heparinized capillary tubes into blood collection tubes with K2-EDTA. Complete blood counting was performed using Hemavet 950. Hematocrit (HCT), red blood cell (RBC) and hemoglobin (Hb) values are shown.

Mouse BFU-Es = experiment: Primary mouse BFU-E culture assay (cell expansion); assay type: cell-based
Procedure: Primary mouse BFU-Es were isolated from mouse embryonic day 14.5 (E14.5) fetal liver and cultured in StemSpan serum-free expansion medium, and the numbers of cells formed were counted during culture. BFU-Es were infected with either viruses encoding control shRNA or viruses encoding shRNAs targeting Chrm4, and numbers of GFP+ cells formed during culture were counted. DMSO or 25 mg/kg oxyphenonium bromide was intraperitoneally injected into the hemolysis mouse model, Mx1-cre Srsf2 P95H/WT MDS mouse model, and aging mouse model. Complete blood count (CBC) was performed after compound injection. CREB ChIP-Seq was performed on BFU-Es after culture with 100 μM oxyphenonium bromide for 45 minutes. RNA-Seq was performed in BFU-Es after being cultured with DMSO or oxyphenonium bromide for 3 days.
BFU-Es were isolated from mouse embryonic day 14.5 fetal liver using fluorescence-activated cell sorting (FACS) method previously described (Flygare et al., Blood 117, 3435-3444 (2011)). BFU-Es were cultured in StemSpan SFEM II medium containing rmSCF (100 ng/ml), EPO (2 U/ml), rmIGF-1 (40 ng/ml), dexamethasone (1 nmol/ml or 10 nmol/ml), oxyphenonium bromide ([…]), and orphenadrine citrate (1 μmol/ml).
BFU-Es were isolated from mouse embryonic day 14.5 fetal liver using fluorescence-activated cell sorting (FACS) method. BFU-Es were cultured in StemSpan SFEM II medium containing rmSCF (100 ng/ml), EPO (2 U/ml), rmIGF-1 (40 ng/ml), dexamethasone (1 nM), together with either DMSO, PCS1055 (5 nM), or PD102807 (3 nM). Numbers of cell formed were counted during in vitro culture.
FIGS. 7 and 8 show the results of the primary BFU-E culture assay. […] Highly purified BFU-Es were isolated as lin-Ter-119-CD16/CD32-Sca-1-CD41-c-Kit+CD71/Cd24a^10% low population using the fluorescence-activated cell sorting (FACS) method. BFU-Es were cultured in medium containing rmSCF, EPO, and rmIGF-1, in the presence of PD102807 or Compounds A-K at indicated concentrations.

T1 sequence (P20309 whole entry): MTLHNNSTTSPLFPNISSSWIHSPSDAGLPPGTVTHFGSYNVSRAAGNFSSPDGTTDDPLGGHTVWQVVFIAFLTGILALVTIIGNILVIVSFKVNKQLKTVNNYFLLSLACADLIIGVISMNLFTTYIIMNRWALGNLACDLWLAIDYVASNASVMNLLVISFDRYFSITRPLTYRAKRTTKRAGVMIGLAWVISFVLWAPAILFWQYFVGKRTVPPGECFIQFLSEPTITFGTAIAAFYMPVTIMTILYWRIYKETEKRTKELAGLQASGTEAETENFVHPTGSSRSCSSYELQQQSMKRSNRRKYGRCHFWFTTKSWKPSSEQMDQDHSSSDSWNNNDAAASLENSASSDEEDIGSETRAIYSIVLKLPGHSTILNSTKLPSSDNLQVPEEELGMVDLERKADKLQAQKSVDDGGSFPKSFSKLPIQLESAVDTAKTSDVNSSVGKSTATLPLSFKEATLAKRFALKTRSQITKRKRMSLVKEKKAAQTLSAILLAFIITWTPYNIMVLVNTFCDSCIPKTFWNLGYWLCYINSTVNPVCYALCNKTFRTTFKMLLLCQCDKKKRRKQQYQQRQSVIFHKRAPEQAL

CCOC(=O)c1c(C)[nH]c2ccc3c(c12)CN1CCc2cc(OC)ccc2C1O3 (centres unmarked) [PD102807, reference compound]
Ki [1]: 210 nM | Ki (CHRM4 [2]): 5.1 nM | Ki [3]: 2500 nM | selectivity for CHRM4 over other muscarinic acetylcholine receptor family members (CHRM4 [4]): selectively inhibits CHRM4 | HCT, PHZ-induced anemia [5]: significantly improved | RBC, PHZ-induced anemia [5]: significantly improved | expansion of BFU-E cells in cell culture (Mouse BFU-Es; 3 nM PD102807): increase the expansion of BFU-E cells | BFU-E expansion, cell numbers at day 9 (Mouse BFU-Es; indicated concentrations, vs untreated): induce BFU-E expansion

Reference: patent US12497411B2, “Muscarinic acetylcholine receptor subtype 4 antagonists in the treatment of anemia” (COLD SPRING HARBOR LABORATORY, priority 2019, dated 2025)
